Measured values from PMC10726347, “Discovery of Inhibitory Fragments That Selectively Target Spire2–FMN2 Interaction” (Journal of Medicinal Chemistry, 2023).
Read-outs that look alike come from different tables or passages of the source.

Assays:
KIND1 [1] = molecular target: T1, KIND1 (Homo sapiens, UniProt Q08AE8); test: Binding to KIND1 (method not given)
T1 construct: His6 (N, cleaved yes); made in house; host or cells: E. coli BL21 (DE3)

KIND1 [2] = molecular target: T1, KIND1; test: FP competition assay with FITC-labeled FSI peptide, KIND1; format: binding; conditions: 2.44-2500 μM, 1.17 μM KIND1
Description: (§1) The probe was diluted in the buffer assay (25 mM Tris, pH 7.8, 100 mM NaCl, 2 mM DTT) and added to the preplated mixtures of protein/fragment solutions. […] Each experiment was performed in triplicate with four technical replications.
(§2) Establishment of fluorescence polarization assay
(§3) The establishment of the fluorescence polarization assay was done according to protocols […]
(§4) In the first step, the affinity of the fluorescently labelled reporter peptide (FSI-peptide, FITC- […]
(§5) concentrations of KIND1 or KIND2 domains. This yielded dose-response curves that allow us to calculate the Kd of FSI-peptide.
(§6) In the next step, the working concentration of the proteins was calculated. Typically, the concentration should be in a dynamic range (0.5-0.8). For calculations, the following equation f0 = (P − Pmin)/(Pmax − Pmin)
(§7) P – fluorescence polarization in the dynamic range (0.5 -0.8) , Pmin – average minimal fluorescence polarization, Pmax – average maximal fluorescence polarization,
(§8) Taking into account Kd values for the reporter peptide, the working concentration of the proteins were calculated as follows:
(§9) c = Kd(P − Pmin)/(Pmax − P) […]

KIND2 [3] = molecular target: T2, KIND2 (Homo sapiens, UniProt Q8WWL2); test: Differential scanning fluorimetry (DSF) thermal shift, KIND2
T2 sequence (Q8WWL2 18-207): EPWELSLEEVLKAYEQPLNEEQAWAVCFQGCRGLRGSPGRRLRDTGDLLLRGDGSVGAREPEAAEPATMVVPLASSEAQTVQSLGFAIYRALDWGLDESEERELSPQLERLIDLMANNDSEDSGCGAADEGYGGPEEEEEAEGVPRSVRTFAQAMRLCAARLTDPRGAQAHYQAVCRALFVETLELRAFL

KIND2 [4] = molecular target: T2, KIND2; test: FP competition assay with FITC-labeled FSI peptide, KIND2; format: binding; set-up: His6 (N, cleaved yes); made in house; host or cells: E. coli BL21 (DE3); conditions: for KIND2/FSI inhibitory activity in words: FP assay; for IC50: FP competition
Description: as §1, §2, §3, §4, §5, §6, §7, §8, §9

KIND1 [5] = molecular target: T1, KIND1; test: Differential scanning fluorimetry (DSF) thermal shift, KIND1; format: binding; conditions: 1 mM fragment, 2% DMSO
[6] = 2.44-2500 μM, 2.49 μM KIND2, read-out: KIND2 IC50

T1 sequence (Q08AE8 36-236): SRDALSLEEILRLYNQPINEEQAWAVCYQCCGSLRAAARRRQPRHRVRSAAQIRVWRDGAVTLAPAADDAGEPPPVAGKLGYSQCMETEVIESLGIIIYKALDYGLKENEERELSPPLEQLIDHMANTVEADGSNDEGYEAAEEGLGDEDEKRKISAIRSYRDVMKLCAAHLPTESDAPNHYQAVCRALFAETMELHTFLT

| Compound | IC50 (KIND1 [2]) | IC50 (KIND2 [4]; [6]) | ΔTm at 1000 µM (KIND2 [3]; read-out: ΔTm) | IC50 (KIND2 [4]; Table 2, KIND2, read-out: IC50) | other results |
| --- | --- | --- | --- | --- | --- |
| NCCNc1ccnc2cc(Br)ccc12 [compound 11, N^1-(7-Bromoquinolin-4-yl)ethane-1,2-diamine] |  |  | 1.2 °C | > 2500 µM |  |
| CN(C)CCNc1ccnc2cc(Cl)ccc12 [compound 2, N^1-(7-Chloroquinolin-4-yl)-N^2,N^2-dimethylethane-1,2-diamine] | > 2500 µM | > 2500 µM |  |  | KIND2/FSI inhibitory activity in words (KIND2 [4]): loss of potency |
| Clc1ccc2c(N[C@@H]3CCCNC3)ccnc2c1 [compound 8, (R)-7-Chloro-N-(piperidin-3-yl)quinolin-4-amine] | > 2500 µM | > 2500 µM |  |  |  |
| Clc1ccc2c(N3CCNCC3)ccnc2c1 [F671] | > 2500 µM | > 2500 µM |  |  | ΔTm at 1000 µM (KIND2 [3]; read-out: KIND2 ΔTm): -2 °C; KIND2/FSI inhibitory activity in words (KIND2 [4]): complete drop in potency; ΔTm at 1000 µM (KIND1 [5]): -1 °C |
| N[C@H]1CCCN(c2ccnc3cc(Cl)ccc23)C1 [compound 5, (3S)-1-(7-Chloroquinolin-4-yl)piperidin-3-amine] | > 2500 µM | > 2500 µM |  |  |  |
| NCCNc1ccnc2cc(OCc3ccccc3)ccc12 [compound 16, N^1-[7-(Benzyloxy)quinolin-4-yl]ethane-1,2-diamine] |  |  | 0 °C | > 2500 µM |  |
| NCCNc1ccnc2cc(C(F)(F)F)ccc12 [compound 9, N^1-(7-(Trifluoromethyl)quinolin-4-yl)ethane-1,2-diamine] |  |  | -0.4 °C | > 2500 µM |  |
| Clc1ccc2c(N[C@H]3CCCNC3)ccnc2c1 [compound 7, (S)-7-Chloro-N-(piperidin-3-yl)quinolin-4-amine] | > 2500 µM | > 2500 µM |  |  |  |
| N[C@@H]1CCN(c2ccnc3cc(Cl)ccc23)C1 [compound 4, (R)-1-(7-Chloroquinolin-4-yl)pyrrolidin-3-amine] | > 2500 µM | > 2500 µM |  |  |  |
| OCCNc1ccnc2cc(Cl)ccc12 [compound 1, 2-((7-Chloroquinolin-4-yl)amino)ethan-1-ol] | > 2500 µM | > 2500 µM |  |  |  |
| Cc1ccc2c(NCCN)ccnc2c1 [compound 10, N^1-(7-Methylquinolin-4-yl)ethane-1,2-diamine] |  |  | 2 °C | > 2500 µM |  |
| NCCNc1ccnc2c(Cl)cccc12 [compound 17, N^1-(8-Chloroquinolin-4-yl)ethane-1,2-diamine] |  |  | 0.8 °C | > 2500 µM | KIND2/FSI inhibitory activity in words (KIND2 [4]): complete loss of activity |
| N[C@H]1CCN(c2ccnc3cc(Cl)ccc23)C1 [compound 3, (S)-1-(7-Chloroquinolin-4-yl)pyrrolidin-3-amine] | > 2500 µM | > 2500 µM |  |  |  |
| NCCNc1ccnc2cc(Oc3ccccc3)ccc12 [compound 15, N^1-(7-Phenoxyquinolin-4-yl)ethane-1,2-diamine] |  |  | -0.1 °C | > 2500 µM |  |
| N[C@@H]1CCCN(c2ccnc3cc(Cl)ccc23)C1 [compound 6, (3R)-1-(7-Chloroquinolin-4-yl)piperidin-3-amine] | > 2500 µM | > 2500 µM |  |  |  |
| NCCNc1ccnc2c(F)cccc12 [compound 18, N^1-(8-Fluoroquinolin-4-yl)ethane-1,2-diamine] |  |  | 0.8 °C | > 2500 µM | KIND2/FSI inhibitory activity in words (KIND2 [4]): complete loss of activity |

Continued, in another order:

| IC50 (KIND1 [2]) | IC50 (KIND2 [4]; [6]) | ΔTm at 1000 µM (KIND2 [3]; read-out: ΔTm) | IC50 (KIND2 [4]; Table 2, KIND2, read-out: IC50) | Compound | other results |
| --- | --- | --- | --- | --- | --- |
| > 2500 µM |  |  |  | NCCNc1ccnc2cc(Cl)ccc12 [F408, N^1-(7-Chloroquinolin-4-yl)ethane-1,2-diamine] | binding to KIND1 (KIND1 [1]): did not bind |
| > 2500 µM | > 2500 µM |  |  | OCCCNc1ccnc2cc(Cl)ccc12 [F410] | ΔTm at 1000 µM (KIND2 [3]; read-out: KIND2 ΔTm): -0.5 °C; KIND2/FSI inhibitory activity in words (KIND2 [4]): complete loss in activity; ΔTm at 1000 µM (KIND1 [5]): -0.4 °C |
| > 2500 µM |  |  |  | NCCCCNc1ccnc2cc(Cl)ccc12 [F667] |  |
| > 2500 µM |  |  |  | NCCCNc1ccnc2cc(Cl)ccc12 [F409] |  |
| > 2500 µM |  |  |  | CN(C)CCCNc1ccnc2cc(Cl)ccc12 [F666] |  |
| > 2500 µM | > 2500 µM |  |  | Clc1ccc2c(NCCCN3CCOCC3)ccnc2c1 [F669] | ΔTm at 1000 µM (KIND2 [3]; read-out: KIND2 ΔTm): -1 °C; KIND2/FSI inhibitory activity in words (KIND2 [4]): complete drop in potency; ΔTm at 1000 µM (KIND1 [5]): -0.5 °C |
| > 2500 µM | > 2500 µM |  |  | Nc1ccnc2cc(Cl)ccc12 [F668] | ΔTm at 1000 µM (KIND2 [3]; read-out: KIND2 ΔTm): -1 °C; ΔTm at 1000 µM (KIND1 [5]): -0.4 °C |
